Test results published in ChEMBL document CHEMBL3603783, “Monoterpene indole alkaloid hydrazone derivatives with apoptosis inducing activity in human HCT116 colon and HepG2 liver carcinoma cells” (2015).
Activity calls are given as the source filed them. The rule behind the calls is not given here.

Legend:
[1] = test system: HCT-116; test: Cytotoxicity against human HCT116 cells assessed as reduction in cell viability at 5 to 50 uM after 72 hrs by MTS assay; format: functional, cell-based
[2] = test system: HepG2; test: Cytotoxicity against human HepG2 cells assessed as reduction in cell viability at 5 to 50 uM after 72 hrs by MTS assay; format: functional, cell-based
[3] = test system: HCT-116; test: Induction of apoptosis in human HCT116 cells at 5 to 50 uM after 72 hrs by Guava ViaCount flow cytometric analysis; format: functional, cell-based
[4] = test system: HepG2; test: Induction of apoptosis in human HepG2 cells at 5 to 50 uM after 72 hrs by Guava ViaCount flow cytometric analysis; format: functional, cell-based
[5] = test system: HCT-116; test: Induction of apoptosis in human HCT116 cells assessed as change in nuclear morphology at 25 to 50 uM after 24 hrs by Hoechst staining-based fluorescence microscopic analysis; format: functional, cell-based
[6] = test system: HepG2; test: Induction of apoptosis in human HepG2 cells assessed as change in nuclear morphology at 25 to 50 uM after 24 hrs by Hoechst staining-based fluorescence microscopic analysis; format: functional, cell-based
[7] = test system: HCT-116; test: Cytotoxicity against human HCT116 cells assessed as reduction in cell viability at 50 uM after 72 hrs by MTS assay relative to control; format: functional
[8] = test system: HepG2; test: Cytotoxicity against human HepG2 cells assessed as reduction in cell viability at 50 uM after 72 hrs by MTS assay relative to control; format: functional
[9] = test system: HCT-116; test: Cytotoxicity against human HCT116 cells assessed as reduction in cell viability at 25 uM after 72 hrs by MTS assay relative to control; format: functional
[10] = test system: HepG2; test: Cytotoxicity against human HepG2 cells assessed as reduction in cell viability at 25 uM after 72 hrs by MTS assay relative to control; format: functional
[11] = test system: HCT-116; test: Induction of apoptosis in human HCT116 cells at 50 uM after 72 hrs by Guava ViaCount flow cytometric analysis relative to control; format: functional
[12] = test system: HepG2; test: Induction of apoptosis in human HepG2 cells at 50 uM after 72 hrs by Guava ViaCount flow cytometric analysis relative to control; format: functional
[13] = test system: HCT-116; test: Induction of apoptosis in human HCT116 cells assessed as change in nuclear morphology at 25 uM after 24 hrs by Hoechst staining-based fluorescence microscopic analysis relative to vehicle-treated control; format: functional
[14] = test system: HCT-116; test: Induction of apoptosis in human HCT116 cells assessed as change in nuclear morphology at 25 uM after 24 hrs by Hoechst staining-based fluorescence microscopic analysis relative to 5-FU; format: functional
[15] = test system: HepG2; test: Induction of apoptosis in human HepG2 cells assessed as change in nuclear morphology at 25 uM after 24 hrs by Hoechst staining-based fluorescence microscopic analysis relative to vehicle-treated control; format: functional
[16] = test system: HepG2; test: Induction of apoptosis in human HepG2 cells assessed as change in nuclear morphology at 25 uM after 24 hrs by Hoechst staining-based fluorescence microscopic analysis relative to 5-FU; format: functional
[17] = test system: HCT-116; test: Induction of apoptosis in human HCT116 cells assessed as increase in caspase-3/7 activity at 25 to 50 uM after 24 hrs by caspase-Glo 3/7 assay; format: functional, cell-based
[18] = test system: HepG2; test: Induction of apoptosis in human HepG2 cells assessed as increase in caspase-3/7 activity at 25 to 50 uM after 24 hrs by caspase-Glo 3/7 assay; format: functional, cell-based
[19] = test system: HCT-116; test: Cytotoxicity against human HCT116 cells assessed as reduction in cell viability at 10 uM after 72 hrs by MTS assay relative to control; format: functional
[20] = test system: HCT-116; test: Induction of apoptosis in human HCT116 cells at 25 uM after 72 hrs by Guava ViaCount flow cytometric analysis relative to control; format: functional
[21] = test system: HepG2; test: Induction of apoptosis in human HepG2 cells at 25 uM after 72 hrs by Guava ViaCount flow cytometric analysis relative to control; format: functional

With O=c1[nH]cc(F)c(=O)[nH]1 the Activity [1] was “Active”, the Activity [2] was “Active” and the Activity [3] was “Active”. For the same compound, the Activity [4] was “Active”, the Activity [5] was “Active” and the Activity [6] was “Active”.

In the case of CC[C@H]1CN(C)[C@H]2Cc3c([nH]c4ccccc34)C(=O)C[C@H]1[C@@H]2C(=O)OC, the Activity [7] is reported as “inactive”, the Activity [8] is reported as “inactive” and the Activity [3] is reported as “inactive”. The Activity [4] was “inactive”.

With CC[C@@H]1CN(C)[C@H]2Cc3c([nH]c4ccccc34)/C(=N/Nc3ccc(Br)cn3)C[C@H]1[C@@H]2C(=O)OC the Activity [9] was >95%, the Activity [10] was >95% and the Activity [11] was 95%. The Activity [12] was 95%, the “fold change (FC)” value [13] was 2 and the “fold change (FC)” value [14] was 2. The “fold change (FC)” value [15] was 4, the “fold change (FC)” value [16] was 2 and the Activity [17] was “Active”. For the same compound, the Activity [18] was “Active”.

With CC[C@@H]1CN(C)[C@H]2Cc3c([nH]c4ccccc34)C(=O)C[C@@H]1[C@H]2C(=O)OC the Activity [7] was “inactive”, the Activity [8] was “inactive” and the Activity [3] was “inactive”. The Activity [4] was “inactive”.

With CC[C@H]1CN(C)[C@H]2Cc3c([nH]c4ccccc34)/C(=N/Nc3ccc(Br)cn3)C[C@H]1[C@@H]2C(=O)OC the Activity [9] was >95%, the Activity [10] was >95% and the Activity [19] was 75%. For the same compound, the Activity [20] was 95%, the Activity [21] was 95% and the “fold change (FC)” value [13] was 4. For the same compound, the “fold change (FC)” value [14] was 4, the “fold change (FC)” value [15] was 5.5 and the “fold change (FC)” value [16] was 2.7. The Activity [17] was “Active” and the Activity [18] was “Active”.

In the case of CC[C@H]1CN(C)[C@H]2Cc3c([nH]c4ccccc34)/C(=N/Nc3ccccc3)C[C@H]1[C@@H]2C(=O)OC, the Activity [7] is reported as “inactive” and the Activity [8] is reported as “inactive”.

In the case of CC[C@@H]1CN(C)[C@H]2Cc3c([nH]c4ccccc34)/C(=N/Nc3ccccc3)C[C@H]1[C@@H]2C(=O)OC, the Activity [10] is reported as 60%, the Activity [7] is reported as >95% and the Activity [8] is reported as >95%. For the same compound, the Activity [20] was 35%, the Activity [11] was 95% and the Activity [21] was 90%. The Activity [12] was 95%, the Activity [5] was “Active” and the Activity [6] was “Active”. The Activity [17] was “Active” and the Activity [18] was “Active”.
